Experimental data reported in patent publication EP2829880A1, “Method for identifying modulators of BCRP/ABCG2-mediated ATP release and use of said modulators for treating diseases” (Energeia Biosciences, priority 2013, dated 2015).
Read-outs that look alike come from different tables or passages of the source. One block for each molecule: values may come before it.

Assays:
BCRP (ABCG2) [1] = target: T1, BCRP (ABCG2) (Homo sapiens, UniProt Q9UNQ0); experiment: in vitro
T1 sequence (Q9UNQ0 1-655): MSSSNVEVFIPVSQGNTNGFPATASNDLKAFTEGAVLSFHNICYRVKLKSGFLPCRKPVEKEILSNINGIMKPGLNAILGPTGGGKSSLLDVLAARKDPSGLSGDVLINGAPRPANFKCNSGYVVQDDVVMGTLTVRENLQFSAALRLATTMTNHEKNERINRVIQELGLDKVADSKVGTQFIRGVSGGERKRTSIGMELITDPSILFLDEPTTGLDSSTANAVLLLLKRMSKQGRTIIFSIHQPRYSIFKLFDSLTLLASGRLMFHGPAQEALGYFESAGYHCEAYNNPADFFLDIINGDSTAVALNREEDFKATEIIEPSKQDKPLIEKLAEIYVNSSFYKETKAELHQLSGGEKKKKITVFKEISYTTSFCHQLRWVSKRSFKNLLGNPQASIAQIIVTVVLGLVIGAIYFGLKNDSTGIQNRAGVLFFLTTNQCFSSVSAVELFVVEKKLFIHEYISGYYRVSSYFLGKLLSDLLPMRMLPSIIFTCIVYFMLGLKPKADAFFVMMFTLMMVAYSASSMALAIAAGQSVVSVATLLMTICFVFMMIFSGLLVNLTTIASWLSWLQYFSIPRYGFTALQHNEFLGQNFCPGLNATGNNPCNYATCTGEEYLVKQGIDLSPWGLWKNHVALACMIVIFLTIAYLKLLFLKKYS
Description: The uptake of ATP is plotted in pmol/mg protein/min. […] The uptake of a [3H] or [32P]-radiolabelled ATP by an ABC drug transporter selected from the group consisting of BCRP (ABCG2) or MRP1-6 (ABCC1-6) into membrane vesicles (stably overexpressing one type of ABC transporter) under conditions of low pH (compared with physiological pH) can be studied by radiochemical analysis. Subsequently, the effect of a test compound on the ABC drug transporter-mediated ATP release can be studied at different pH values (not shown in figure). • Figure 6: Schematic representation of the ABC drug transporter mediated-ATP-release assay. The transport of a [3H] or [32P]-radiolabelled ATP by an ABC drug transporter selected from the group consisting of BCRP (ABCG2) or MRP1-6 (ABCC1-6) into MDCKII cells (stably overexpressing one type of ABC drug transporter) under conditions of low extracellular pH (compared with physiological pH) and/or hypoxic conditions (0-1% O2, 5% CO2, 94-95% N2) (compared with normoxic conditions (20% O2, 5% CO2, 75% N2)) can be studied by radiochemical analysis or HPLC. Subsequently, the effect of a test compound on the ABC drug transporter-mediated ATP release can be studied at different pH values (not shown in figure). • Figure 7: Schematic representation of ABCG2 expression in normal tissues. Arrows indicate direction of substrate transport. In the brain and testis, ABCG2 is expressed mainly in the blood vessel endothelium, forming part of the blood-brain and blood-testis barrier, respectively. (from: Robey et al. Curr Pharm Biotechnol 2011) • Figure 8: Table 1: Cellular localization and function of ion exchange pumps • Figure 9: Table 2: Protein and/or gene expression of MRP/Mrp isoforms in various brain compartments in human and in mouse and in rat. Table adapted from Dallas et al. (45). • Figure 10: Chemical structure of Danshen compounds • Fig. 10 A: Chemical structures of compounds from Danshen (Salvia miltiorrhiza) • Fig. 10 B: Chemical structures of main lipophilic compounds from Danshen • Fig. 10 C: Chemical structure of main hydrophilic compounds from Danshen • Fig. 10 D: Chemical structure of Magnesium lithospermate B • Fig. 10 E: Chemical structure of salvianolic acid B • Fig. 10 F: Chemical structure of Indirubin
Membrane vesicles from (ABC transporter-transfected) Sf9 cells were prepared in isotonic vesicle buffer consisting of 50 mM Tris and 250 mM sucrose adjusted to pH 7.4. Vesicular transport assays were performed in vesicular transport assay buffer (50 mM HEPES/KOH, 100 mM KCI) as described before (Breedveld et al., 2004, 2007). The vesicular transport assay buffer and the solutions of all other reagents used in transport assays were adjusted to the appropriate pH (pH 6 or pH 7.4) by adding aliquots of HCl (37% w/w) for low pH. The pH of the final solution was controlled (Breedveld et al., 2007). […]
Curve fitting was performed by nonlinear regression analysis using the software package Graphpad Prism version 4 (GraphPad Software, San Diego, USA). Data from concentration-dependent transport assays were analyzed according to the classical Michaelis-Menten model (eq. 1) (Rowland and Tozer, 1995): v = (Vmax x [S])/(Km + [S]) [formula] where v is the rate of transport, Vmax is the maximum velocity, S is the substrate concentration, and Km is the substrate concentration at half-maximum velocity.

BCRP (ABCG2) [2] = target: T1, BCRP (ABCG2); design: made in house; host or cells: Sf9 insect cells (membrane vesicles); details: 1 µM MTX; cited from earlier work
[3] = cited from earlier work
[4] = substrate: Nc1ncnc2c1ncn2[C@@H]1O[C@H](COP(=O)(O)OP(=O)(O)OP(=O)(O)O)[C@@H](O)[C@H]1O; experiment: cells, lysate or membranes named; details: other: pH 6, saturable transport, 37°C, 5 min (Fig. 2A)

inhibition at 100 µM (BCRP (ABCG2) [1]; pH 6): ~46%
Molecule: CN(Cc1cnc2nc(N)nc(N)c2n1)c1ccc(C(=O)N[C@@H](CCC(=O)O)C(=O)O)cc1 [MTX, methotrexate]
ATP-dependent transport by BCRP at pH 5.1 relative to physiological pH (BCRP (ABCG2) [2]): 7 fold

transport by BCRP at pH 6 relative to physiological pH (BCRP (ABCG2) [1]; 0.5 min, 100 µM, pH 6): 3.8 fold
Molecule: Nc1ncnc2c1ncn2[C@@H]1O[C@H](COP(=O)(O)OP(=O)(O)OP(=O)(O)O)[C@@H](O)[C@H]1O [[^3H]ATP, adenosine 5'-triphosphate]

net uptake into BCRP membrane vesicles (BCRP (ABCG2) [1]; 0.5 min, 100 µM, pH 6): 80 pmol/mg protein
net uptake into BCRP membrane vesicles (BCRP (ABCG2) [1]; 10 min, 100 µM, pH 6): 194 pmol/mg protein
Molecule: Nc1ncnc2c1ncn2[C@@H]1O[C@H](COP(=O)(O)OP(=O)(O)OP(=O)(O)O)[C@@H](O)[C@H]1O [[^32P]-γ-labeled-ATP, adenosine 5'-triphosphate]

IC50 (BCRP (ABCG2) [1]): > 1000 µM
Molecule: COc1ccnc(C[S+]([O-])c2nc3ccc(OC(F)F)cc3[nH]2)c1OC (stereo not shown) [pantoprazole]

Molecule: CCN(CC)CCNC(=O)c1c(C)[nH]c(/C=C2\C(=O)Nc3ccc(F)cc32)c1C [sunitinib]
increase of brain accumulation ([3]; Abcb1a/b(-/-) mice): 2.3 fold
increase of brain accumulation ([3]; Abcb1a/b/Abcg2(-/-) mice): 23 fold

B1: BCRP (ABCG2) (Homo sapiens) (protein)
chain: T1 sequence (Q9UNQ0 1-655)
Km [4]: 2000 µM
Vmax [4]: 1.5 nmoles/mg protein/min
